The source made the active and inactive calls. How the calls were made is not given here.

This assay has as its system L. donovani-infected THP-1 macrophages, intracellular amastigote imaging. Kind of assay: intracellular L. donovani amastigote inhibition, imaging, THP-1 host macrophages, host toxicity (AID 1159564).
Setting [1] is: measured here: THP-1 host cell toxicity.
[2] abbreviates: measured here: amastigotes per macrophage.

For orientation: IC50 means the concentration that gives 50% inhibition. Regarding `CS(=O)(=O)c1ccc(CC(=O)Nc2nc(-c3ccc(Cl)s3)cs2)cc1`, the IC50 was > 50 µM (inactive). The same compound showed a half-inhibitory concentration (IC50) under setting [1] of 16 µM. Further, under setting [2], the IC50 was above 50 µM.

On to `CNc1cc(Cn2c(C(=O)c3cc(C)cc(Cl)c3)c(C(C)C)c(=O)[nH]c2=O)ccn1`, for which the half-maximal inhibitory concentration (IC50) is 20 µM. The 50% inhibitory concentration (IC50) under setting [1] was above 50 µM. Under setting [2], this compound came in with a half-inhibitory concentration (IC50) of 13 µM.

Turning to `COc1ccc([N+](=O)[O-])cc1NC(=O)c1cc(Cl)ccc1O`, the IC50 was 2 µM. Besides, the IC50 under setting [1] came out at 10 µM. In addition, the IC50 under setting [2] worked out at 1.6 µM.

Take `Cc1nc(-c2ccncc2)ncc1C(C)NC(=O)c1ccc(Cl)s1` (stereo unspecified): the IC50 is > 50 µM (inactive). Also, the IC50 under setting [1] is above 50 µM. Under setting [2], this compound registered a 50% inhibitory concentration (IC50) above 50 µM.

`Cn1nc(-c2ccc(NC(=O)Cc3ccccc3Cl)cc2)c2c(N)ncnc21`: the IC50 is > 50 µM (inactive). In addition, the IC50 under setting [1] is above 50 µM. Under setting [2], the IC50 was above 50 µM.

As for `COc1ncc(-c2ccc3ncnc(N4CCOCC4)c3c2)cc1NS(C)(=O)=O`, the IC50 was 5 µM. Under setting [1], the IC50 came out at 1 µM. The same compound came in with a concentration for half-maximal inhibition (IC50) under setting [2] of 0.63 µM.

With `O=c1ccc2ccc(F)c3c2n1C[C@H]3CN1CCN(CC(O)c2cc3c(cn2)OCS3)CC1` (stereo partly specified), the IC50 was > 50 µM (inactive). Further, the IC50 under setting [1] was above 50 µM. This compound had a half-inhibitory concentration (IC50) under setting [2] above 50 µM.

Regarding `CC(C(=O)Nc1ccccc1F)N(C)CC(=O)Nc1cccc2ccccc12` (stereo unspecified), the IC50 is > 50 µM (inactive). Under setting [1], this compound displayed a 50% inhibitory concentration (IC50) above 50 µM. The same compound returned an IC50 under setting [2] above 50 µM.

In the case of `COc1cc(OC)cc(C(=O)N[C@@H](CC(C)C)C(=O)NC2(C#N)CC2)c1`, the IC50 is > 50 µM (inactive). The compound also registered an IC50 under setting [1] above 50 µM. Under setting [2], this compound yielded an IC50 above 50 µM.

`COc1cc(NC(=O)Nc2cccc(CNC(=O)OC3CCCCC3)c2)ccc1-c1cnco1`: the IC50 was > 50 µM (inactive). For the same compound, the IC50 under setting [1] was found to be 10 µM. The IC50 under setting [2] came to 20 µM.

For the compound `COc1ccc2nccc([C@H](O)CN3CC[C@H](NC(=O)c4ccc(Br)cc4)[C@@H](O)C3)c2n1`, the IC50 was > 50 µM (inactive). The concentration for half-maximal inhibition (IC50) under setting [1] is above 50 µM. The IC50 under setting [2] was above 50 µM.

With `O=C(CCCNC(=O)c1ccc(Cl)cc1)Nc1nc(-c2ccccn2)cs1`, the IC50 is 5 µM. This compound also showed an IC50 under setting [1] above 50 µM. The compound further had a 50% inhibitory concentration (IC50) under setting [2] of 3.2 µM.

Turning to `CCOc1ccc(CN(C)Cc2nc(N)nc(Nc3ccc(C)cc3)n2)cc1`, the IC50 is 4 µM. Besides, the half-inhibitory concentration (IC50) under setting [1] was determined as 40 µM. This compound also displayed an IC50 under setting [2] of 3.2 µM.

For `Cc1cc(C)cc(NS(=O)(=O)c2cc(-c3cc(C)[nH]n3)ccc2C)c1`, the half-maximal inhibitory concentration (IC50) was 7.9 µM. For the same compound, the half-inhibitory concentration (IC50) under setting [2] worked out at 3.2 µM.

For `CC(C)(C)C(=O)NCCc1csc(-c2ccc(F)cc2)n1`, the IC50 is > 50 µM (inactive). This compound also registered an IC50 under setting [1] above 50 µM. The compound further showed a 50% inhibitory concentration (IC50) under setting [2] above 50 µM.

Regarding `Cc1ccc(NC(=O)c2ccnc(N3CCCC3)c2)cc1-c1ccsc1C(N)=O`, the IC50 was > 50 µM (inactive). Moreover, the 50% inhibitory concentration (IC50) under setting [1] is above 50 µM. For the same compound, the 50% inhibitory concentration (IC50) under setting [2] is above 50 µM.

On to `CC(=O)Nc1ccc(CN2CCC(N3CC(c4ccccc4)(c4ccccc4)OCC3=O)CC2)cc1`, for which the IC50 is 25 µM. The 50% inhibitory concentration (IC50) under setting [1] worked out at 40 µM. Moreover, the 50% inhibitory concentration (IC50) under setting [2] turned out to be 20 µM.

Take `Cc1nc2c(-c3n[nH]c(-c4ccccc4N)n3)cccn2c1C`: the IC50 was 1.6 µM. This compound also came in with an IC50 under setting [1] of 7.9 µM. Under setting [2], this compound displayed a 50% inhibitory concentration (IC50) of 1 µM.

On to `CCCNC(=O)Nc1cccc(-c2nc3ncccc3o2)c1`, for which the IC50 was 13 µM. The compound also had a half-inhibitory concentration (IC50) under setting [1] of 20 µM. This compound also yielded a half-inhibitory concentration (IC50) under setting [2] of 16 µM.

In the case of `CN(C)CCN(C)Cc1ccc(F)cc1NS(=O)(=O)c1ccc(Cl)c(Cl)c1`, the IC50 was 7.9 µM. For the same compound, the IC50 under setting [1] amounted to 32 µM. Also, the IC50 under setting [2] turned out to be 2.5 µM.

`CC1(Oc2cncc(Cl)c2)CCN(Cc2cc3ccccc3[nH]2)C1` (stereo unspecified): the 50% inhibitory concentration (IC50) is 20 µM. Further, the IC50 under setting [1] came to 32 µM. Also, the IC50 under setting [2] was determined as 32 µM.

Turning to `C[C@@H](Oc1cc(-n2cnc3ccc(O[C@H]4CCNC4)cc32)sc1C(N)=O)c1ccccc1Cl`, the IC50 is 7.9 µM. This compound yielded an IC50 under setting [1] of 6.3 µM. Under setting [2], this compound registered an IC50 of 5 µM.

As for `Cc1nn(-c2nc3ccccc3[nH]2)c2c1C(c1ccc(O)cc1)CC(=O)N2` (stereo unspecified), the IC50 is 1 µM. Under setting [1], this compound displayed an IC50 of 6.3 µM. Moreover, the IC50 under setting [2] was found to be 0.5 µM.

Take `COc1ccc(NS(=O)(=O)c2cc(NC(=O)Cc3ccc(C)cc3)ccc2N2CCOCC2)cc1`: the IC50 is > 50 µM (inactive). The compound further came in with a half-inhibitory concentration (IC50) under setting [1] above 50 µM. Also, the IC50 under setting [2] is above 50 µM.

On to `Cc1nc2c(-c3ncn[nH]3)cc(NC(=O)Cc3ccccc3)cn2c1C`, for which the half-maximal inhibitory concentration (IC50) was 0.4 µM. The compound further showed an IC50 under setting [1] of 7.9 µM. Moreover, under setting [2], the IC50 turned out to be 0.32 µM.

Consider `CCCn1c(NC(=O)CCn2cc(Br)cn2)nc2ccccc21`, for which the IC50 is 10 µM. The compound further showed an IC50 under setting [1] above 50 µM. In addition, the IC50 under setting [2] worked out at 5 µM.

Regarding `c1cncc(CN(Cc2ccco2)Cc2cn[nH]c2-c2cccs2)c1`, the IC50 was > 50 µM (inactive). This compound also gave a 50% inhibitory concentration (IC50) under setting [1] of 20 µM. The compound further displayed an IC50 under setting [2] of 1.3 µM.

For `N#Cc1ccc(S(=O)(=O)N2CCC3(CCN(c4ccccc4)C3=O)CC2)cc1`, the IC50 was > 50 µM (inactive). This compound yielded a 50% inhibitory concentration (IC50) under setting [1] above 50 µM. The compound also returned a concentration for half-maximal inhibition (IC50) under setting [2] above 50 µM.

Regarding `COc1ccnc2[nH]cc(-c3cc(C(=O)N[C@H](CO)c4ccccc4)co3)c12`, the IC50 is 7.9 µM. Also, the IC50 under setting [1] worked out at 0.79 µM. Besides, the IC50 under setting [2] amounted to 2 µM.

As for `NC(=O)c1ncc(N[C@@H]2CCCNC2)nc1Nc1cccc(Cl)c1`, the IC50 is 0.79 µM. This compound displayed an IC50 under setting [1] of 2 µM. In addition, the IC50 under setting [2] is 0.5 µM.

As for `Cc1nnnn1-c1cccc(C(=O)N2CCC[C@@]3(C)c4ncncc4CCC23)c1` (stereo partly specified), the IC50 is > 50 µM (inactive). The IC50 under setting [1] was above 50 µM. The same compound had an IC50 under setting [2] of 6.3 µM.

With `Cc1cc(C)n(-c2nc(NC(C)(C)C)nc(N3CCOCC3)n2)n1`, the IC50 was 7.9 µM. Further, the IC50 under setting [1] is above 50 µM. Under setting [2], this compound yielded an IC50 of 4 µM.

With `Cc1ccccc1CNc1cc(C2CC2)nc(-c2nccn2C)n1`, the half-inhibitory concentration (IC50) was 0.63 µM. This compound had an IC50 under setting [1] of 10 µM. This compound showed a half-inhibitory concentration (IC50) under setting [2] of 0.63 µM.

As to `Cc1cc(C)c(C#N)c(SCC(=O)c2ccc3c(c2)OCO3)n1`, the IC50 was > 50 µM (inactive). Besides, the IC50 under setting [1] was above 50 µM. The same compound yielded a concentration for half-maximal inhibition (IC50) under setting [2] above 50 µM.

As to `Cc1cccc(N2CCCN(Cc3c[nH]c4ccccc34)CC2)n1`, the IC50 was 10 µM. The compound also yielded an IC50 under setting [1] of 10 µM. Besides, the half-maximal inhibitory concentration (IC50) under setting [2] was 10 µM.

Consider `c1ccc(Nc2nc(-c3ccccn3)cc(N3CCOCC3)n2)cc1`, for which the concentration for half-maximal inhibition (IC50) is 2 µM. The same compound showed an IC50 under setting [1] above 50 µM. Also, under setting [2], the IC50 is 1.3 µM.

With `CCCCn1c(=O)c2c(N)onc2n(CCCC)c1=O`, the IC50 was > 50 µM (inactive). The same compound registered a 50% inhibitory concentration (IC50) under setting [1] above 50 µM. Under setting [2], the IC50 worked out at 32 µM.

For `c1ccc(CNc2cccc3ccncc23)cc1`, the IC50 is 7.9 µM. This compound had an IC50 under setting [1] of 50 µM. The IC50 under setting [2] was 5 µM.

Regarding `Cc1ccccc1CNC(=O)CN(Cc1ccccn1)Cc1ccccn1`, the IC50 was 6.3 µM. The IC50 under setting [1] is above 79 µM. Under setting [2], this compound yielded a 50% inhibitory concentration (IC50) of 4 µM.

(Values after PubChem BioAssay AID1159564 (GlaxoSmithKline (GSK), 2015).)
